Measured values published in publication PMC12851022, “Targeting the Spliceosomal Protein USP39 Through Allosteric Ligands and PROTAC‐Induced Degradation” (Angewandte Chemie (International Ed. in English), 2025).
pKd: −log10 of the molar value.

How the values were obtained:
[1] = system: 5′ splice site usage in exon 1 of ZNF414 and CRK; test: RT-PCR analysis of alternative splicing in ZNF414 and CRK transcripts; format: cell-based, human; conditions: 10 nM, 24 h
Method: (§1) Figure 4 Effective and selective degradation of USP39 in cells by USP39‐PROTACs. a) Optimization of cellular degradation assay in HeLa cells transiently overexpressing USP39‑OFP (HeLa‐USP39‐OFP). […] GAPDH was used as a loading control. g) Proteasome dependence of USP39 degradation. HeLa‐WT cells were co‐treated with MG132 (0.25 µM) or DMSO control and USP39_PROTAC_V1 for 24 h ST. h) Representative immunofluorescence images of HeLa‐USP39_OFP cells treated with DMSO (NT), USP39_PROTAC_V1 (10 nM, 24 h), or USP39_PROTAC_V1 + MLN4924 (1 µM), stained for USP39 (red) and nuclei (blue). i) Quantification of USP39 degradation by fluorescence microscopy, showing DC50 values of 13 nM without MLN4924 (orange) and 204 nM with MLN4924 (blue) (MLN4924 = 5 uM). j) VHL‐dependence of PROTAC‐induced degradation. Schematic of PROTAC recruitment to VHL via hydroxyl‐proline interactions (His115, Ser111). Western blot comparing USP39 levels in VHL WT and VHL KO HeLa cells treated with USP39_PROTAC_V1. k) Fluorescence assay in HEK293T cells co‐expressing USP39‑OFP and either VHL_WT‑EGFP or VHL_m (Δ91–121). […] Comparison of untreated (NT) and USP39_PROTAC_V1–treated (10 nM, 24 h) samples. Percent spliced/unspliced (S/U) ratios are shown, reflecting USP39‐deficiency–associated splicing defects. Data represent at least four independent biological replicates. […]

[2] = target: T1, USP39_T2 (Homo sapiens, UniProt Q53GS9); test: Isothermal titration calorimetry (ITC); format: binding
T1 construct: USP39_T2 (ZNF domain only); made in house
T1 sequence (Q53GS9 103-200 limits assumed): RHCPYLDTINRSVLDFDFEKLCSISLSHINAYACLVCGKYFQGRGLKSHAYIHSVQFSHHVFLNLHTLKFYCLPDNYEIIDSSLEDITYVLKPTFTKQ

[3] = system: HeLa-WT proteome; test: Proteome-wide LC-MS/MS and western blot selectivity analysis in HeLa-WT cells; format: cell-based, human
Method: Figure 4 Effective and selective degradation of USP39 in cells by USP39‐PROTACs. a) Optimization of cellular degradation assay in HeLa cells transiently overexpressing USP39‑OFP (HeLa‐USP39‐OFP). […] GAPDH was used as a loading control. g) Proteasome dependence of USP39 degradation. HeLa‐WT cells were co‐treated with MG132 (0.25 µM) or DMSO control and USP39_PROTAC_V1 for 24 h ST. h) Representative immunofluorescence images of HeLa‐USP39_OFP cells treated with DMSO (NT), USP39_PROTAC_V1 (10 nM, 24 h), or USP39_PROTAC_V1 + MLN4924 (1 µM), stained for USP39 (red) and nuclei (blue). i) Quantification of USP39 degradation by fluorescence microscopy, showing DC50 values of 13 nM without MLN4924 (orange) and 204 nM with MLN4924 (blue) (MLN4924 = 5 uM). j) VHL‐dependence of PROTAC‐induced degradation. Schematic of PROTAC recruitment to VHL via hydroxyl‐proline interactions (His115, Ser111). Western blot comparing USP39 levels in VHL WT and VHL KO HeLa cells treated with USP39_PROTAC_V1. k) Fluorescence assay in HEK293T cells co‐expressing USP39‑OFP and either VHL_WT‑EGFP or VHL_m (Δ91–121). […] Comparison of untreated (NT) and USP39_PROTAC_V1–treated (10 nM, 24 h) samples. Percent spliced/unspliced (S/U) ratios are shown, reflecting USP39‐deficiency–associated splicing defects. Data represent at least four independent biological replicates.
To assess the selectivity of USP39 degradation, a proteome‐wide analysis was conducted using LC‐MS/MS based proteomics. […] These finding were further validated by western blot (WB) analysis, which confirmed consistent downregulation of USP39, ISG15, and NDRG1.

[4] = target: T2, USP39-OFP (Homo sapiens, UniProt Q53GS9); test: Fluorescence degradation assay in HEK293T cells co-expressing USP39-OFP and VHL_m (Δ91–121); format: cell-based
T2 construct: expressed in transfected cells; host or cells: HEK293T
T2 sequence (Q53GS9 1-565): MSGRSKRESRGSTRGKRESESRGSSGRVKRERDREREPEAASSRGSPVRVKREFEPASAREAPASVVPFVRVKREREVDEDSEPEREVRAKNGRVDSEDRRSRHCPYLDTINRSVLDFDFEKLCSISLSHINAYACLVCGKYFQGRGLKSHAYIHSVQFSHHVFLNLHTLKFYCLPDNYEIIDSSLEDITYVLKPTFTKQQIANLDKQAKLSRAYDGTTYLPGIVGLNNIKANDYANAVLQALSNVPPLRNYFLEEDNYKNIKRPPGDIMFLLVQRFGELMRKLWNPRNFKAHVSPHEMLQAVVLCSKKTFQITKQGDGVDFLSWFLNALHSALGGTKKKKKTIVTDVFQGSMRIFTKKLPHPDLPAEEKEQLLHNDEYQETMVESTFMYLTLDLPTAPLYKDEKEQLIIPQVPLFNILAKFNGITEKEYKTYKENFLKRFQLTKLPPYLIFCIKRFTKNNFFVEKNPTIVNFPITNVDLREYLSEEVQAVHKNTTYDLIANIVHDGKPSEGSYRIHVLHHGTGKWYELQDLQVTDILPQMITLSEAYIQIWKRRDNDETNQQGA
Method: as §1

[5] = target: T3, USP39-OFP (Homo sapiens, UniProt Q53GS9); test: In-cell fluorescence degradation assay in HeLa-USP39-OFP cells; format: cell-based; conditions: 50 nM, 16-h serum starvation, 24-h treatment
T3 construct: expressed in transfected cells; host or cells: HeLa
Method: To evaluate the degradation efficacy of USP39_PROTACs, we adapted our recently developed cellular fluorescence assay in HeLa cells transiently overexpressing USP39‐OFP (HeLa‐USP39‐OFP).^[ [32] ^] Various experimental conditions were tested, including different initial seeding densities, the presence or absence of serum starvation, varying treatment durations, and compound concentration gradients (Figure 4a). Among these, a 16‐h serum starvation followed by a 24‐h treatment provided the most consistent and reproducible degradation of USP39 and was used for further experiments. Under these experimental conditions, a series of CRBN‐ and VHL‐based PROTACs were evaluated in an in‐cell fluorescence assay at a concentration of 50 nM to assess their ability to induce target protein degradation (Figure 4b, Table SI4). […]
Figure 4 Effective and selective degradation of USP39 in cells by USP39‐PROTACs. a) Optimization of cellular degradation assay in HeLa cells transiently overexpressing USP39‑OFP (HeLa‐USP39‐OFP). […] Western blot comparing USP39 levels in VHL WT and VHL KO HeLa cells treated with USP39_PROTAC_V1. k) Fluorescence assay in HEK293T cells co‐expressing USP39‑OFP and either VHL_WT‑EGFP or VHL_m (Δ91–121). […]
T3 sequence (P40337 whole entry, one chain of several, further chain): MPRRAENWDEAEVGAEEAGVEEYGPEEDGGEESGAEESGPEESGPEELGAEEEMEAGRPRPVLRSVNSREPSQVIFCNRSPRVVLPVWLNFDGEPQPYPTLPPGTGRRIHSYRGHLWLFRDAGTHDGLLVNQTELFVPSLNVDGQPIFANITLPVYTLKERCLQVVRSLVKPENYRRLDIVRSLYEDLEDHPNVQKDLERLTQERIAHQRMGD
T3 sequence (Q15370 whole entry partner, one chain of several): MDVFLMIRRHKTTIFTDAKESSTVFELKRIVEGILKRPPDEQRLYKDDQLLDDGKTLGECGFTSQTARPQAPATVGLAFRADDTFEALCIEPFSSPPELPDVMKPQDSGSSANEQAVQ
T3 sequence (Q15369 whole entry partner, one chain of several): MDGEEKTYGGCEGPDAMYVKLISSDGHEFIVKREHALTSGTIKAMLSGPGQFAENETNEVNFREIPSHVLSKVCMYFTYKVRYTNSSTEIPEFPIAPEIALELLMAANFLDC

[6] = target: T4, USP39-OFP (Homo sapiens, UniProt P40337+Q53GS9); test: Fluorescence degradation assay in HEK293T cells co-expressing USP39-OFP and VHL_WT-EGFP; format: cell-based; conditions: VHL WT (VHL_WT-EGFP co-expressed)
T4 construct: expressed in transfected cells
T4 sequence (P40337 whole entry, one chain of several): as the sequence (P40337 whole entry, one chain of several, further chain) above
T4 sequence (Q15370 whole entry partner, one chain of several): as the sequence (Q15370 whole entry partner, one chain of several) above
T4 sequence (Q15369 whole entry partner, one chain of several): as the sequence (Q15369 whole entry partner, one chain of several) above
Method: as §1

pKd [2]: 6.87
Fold reduction of degradation effect in VHL_m versus VHL_WT cells [4]: more than 80 fold
USP39 degradation in in-cell fluorescence assay [5]: robust degradation activity
DC50 [6]: 1 nM
Structure (SMILES): Cc1ncsc1-c1ccc(CNC(=O)C2CC(O)CN2C(=O)C(NC(=O)CCOCCOCCOCCNC(=O)c2csc(Nc3ccc(Cl)cc3)n2)C(C)(C)C)cc1 (centres unmarked) [USP39_PROTAC_V1]
Cryptic 5′ splice site usage in ZNF414 and CRK [1]: reproduced these cryptic splicing events
USP39 level in proteome-wide analysis ([3]; 5 nM and 50 nM, 24 h, over 6000 detectable proteins, p < 0.0001, log2FC < -4): most significantly downregulated protein
NDRG1 and ISG15 levels (off-target) ([3]; 5 nM and 50 nM, 24 h, proteomics, validated by WB): significant downregulation
USP5 and USP10 levels (homologues) ([3]; proteomic and immunoblot analyses): remained unaffected
